Measurements taken from patent US20260365653A1, “IRREVERSIBLE MUTEGFR INHIBITORS” (Bayer Aktiengesellschaft, priority 2022, published 2026).

Tests used:
[1] = biological target: T1, mutEGFR (D770_N771insNPG, T790) (Homo sapiens, UniProt P00533, INS770NPG/T790M); test: mutEGFR (D770_N771insNPG, T790) kinase assay; type: biochemical; conditions: Table 2a, D770_N771insNPG
T1 construct: exact insNPG construct not described; in-house EGFR proteins were N-terminal GST fusions from baculovirus/insect cells (borders R669-A1210 given only for WT, insSVD, insASV)
T1 sequence (P00533 with tags, fused parts or gaps INS770NPG/T790M limits assumed): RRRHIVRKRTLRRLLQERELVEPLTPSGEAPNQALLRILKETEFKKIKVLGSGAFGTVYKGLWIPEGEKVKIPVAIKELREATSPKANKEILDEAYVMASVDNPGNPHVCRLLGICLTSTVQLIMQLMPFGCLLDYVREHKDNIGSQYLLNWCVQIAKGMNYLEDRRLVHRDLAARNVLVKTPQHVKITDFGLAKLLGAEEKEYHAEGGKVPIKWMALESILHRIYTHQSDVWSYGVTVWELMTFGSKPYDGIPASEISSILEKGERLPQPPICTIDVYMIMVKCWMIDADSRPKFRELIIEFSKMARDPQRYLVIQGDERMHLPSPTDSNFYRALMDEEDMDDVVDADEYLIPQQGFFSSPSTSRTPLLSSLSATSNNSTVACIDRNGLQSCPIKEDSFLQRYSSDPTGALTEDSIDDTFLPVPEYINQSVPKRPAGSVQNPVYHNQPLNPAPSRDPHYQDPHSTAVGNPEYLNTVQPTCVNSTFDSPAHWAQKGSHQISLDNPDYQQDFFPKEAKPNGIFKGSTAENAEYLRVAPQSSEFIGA
Text: The different EGFR proteins used in the biochemical kinase activity inhibition assays were generated inhouse by expression in insect cells using Baculo Virus system and subsequent purification as described in the following paragraphs.
The cDNAs encoding the various protein sequences from human EGFR human (P00533) were optimized for expression in eukaryotic cells and synthesized by the GeneArt Technology at Life Technologies.

[2] = biological target: T2, mutEGFR (D770_N771insSVD) (Homo sapiens, UniProt P00533, DUP768-770); test: Exon20-Mutant-EGFR (D770_N771insSVD) kinase assay (TR-FRET); type: biochemical; conditions: mutEGFR (D770_N771insSVD) kinase assay IC50, Table 2a; D770_N771insSVD; 2 mM ATP
T2 construct: GST-EGFR #3 (SVD between D770 and N771); made in house; host or cells: Sf9 insect cells (baculovirus)
T2 sequence (P00533 with tags, fused parts or gaps DUP768-770): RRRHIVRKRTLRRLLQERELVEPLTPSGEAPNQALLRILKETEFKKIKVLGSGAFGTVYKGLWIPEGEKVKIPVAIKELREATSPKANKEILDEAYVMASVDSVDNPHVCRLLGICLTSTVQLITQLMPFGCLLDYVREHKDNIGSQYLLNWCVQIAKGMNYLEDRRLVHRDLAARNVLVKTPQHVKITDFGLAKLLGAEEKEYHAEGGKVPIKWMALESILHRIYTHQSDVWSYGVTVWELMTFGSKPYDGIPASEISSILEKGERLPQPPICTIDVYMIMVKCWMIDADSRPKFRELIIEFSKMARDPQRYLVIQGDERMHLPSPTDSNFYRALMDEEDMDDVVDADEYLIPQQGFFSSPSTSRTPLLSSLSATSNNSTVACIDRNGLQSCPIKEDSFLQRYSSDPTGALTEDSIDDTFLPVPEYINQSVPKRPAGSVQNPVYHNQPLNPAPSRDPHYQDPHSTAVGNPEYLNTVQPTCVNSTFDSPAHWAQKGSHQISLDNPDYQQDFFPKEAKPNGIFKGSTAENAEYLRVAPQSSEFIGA

BA/F3 (insSVD) cells = test: Ba/F3-EGFR-insSVD cell survival assay (Cell Titer-Glo); type: cell-based; conditions: Mus musculus, BaF3, 48 h, Table 3a, cell survival, Cell Titer-Glo, with 10 ng/ml EGF, without IL-3
Outline: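 CellTiter-Glo luminescence read after 48 h compound exposure at 37° C. Cells: IL-3-independent Ba/F3 lines transduced with EGFR-insSVD or EGFR-insSVD T790M, maintained on 10 ng/ml EGF and seeded at 4000 per well.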

SMILES	IC50 [1]	IC50 [2]	IC50 (BA/F3 (insSVD) cells)
C=CC(=O)N1CCn2nc(-c3ccc(C(F)F)cc3)c(-c3ccncc3)c2C1 [Example 131, 1-{2-[4-(difluoromethyl)phenyl]-3-(pyridin-4-yl)-6,7-dihydropyrazolo[1,5-a]pyrazin-5(4H)-yl}prop-2-en-1-one]	8.01 nM	1.79 nM	61.3 nM
C=CC(=O)N1CCn2nc(-c3cc(Cl)ccc3F)c(-c3ccncc3)c2C1 [Example 132, 1-[2-(5-chloro-2-fluorophenyl)-3-(pyridin-4-yl)-6,7-dihydropyrazolo[1,5-a]pyrazin-5(4H)-yl]prop-2-en-1-one]	1.31 nM	0.957 nM	44.2 nM
C=CC(=O)N1CCn2nc(-c3cccc(Cl)c3)c(-c3ccncc3)c2C1 [Example 133, 1-[2-(3-chlorophenyl)-3-(pyridin-4-yl)-6,7-dihydropyrazolo[1,5-a]pyrazin-5(4H)-yl]prop-2-en-1-one]	3.83 nM	3.01 nM	172 nM
C=CC(=O)N1CCn2nc(-c3ccc(C(F)(F)F)c(F)c3)c(-c3ccncc3)c2C1 [Example 134, 1-{2-[3-fluoro-4-(trifluoromethyl)phenyl]-3-(pyridin-4-yl)-6,7-dihydropyrazolo[1,5-a]pyrazin-5(4H)-yl}prop-2-en-1-one]	9.18 nM	2.1 nM	65.1 nM
C=CC(=O)N1CCn2nc(-c3ccc(C(F)(F)F)cc3F)c(-c3ccncc3)c2C1 [Example 135, 1-{2-[2-fluoro-4-(trifluoromethyl)phenyl]-3-(pyridin-4-yl)-6,7-dihydropyrazolo[1,5-a]pyrazin-5(4H)-yl}prop-2-en-1-one]	1.8 nM	0.471 nM	27.7 nM
C=CC(=O)N1CCn2nc(-c3ccccc3F)c(-c3ccncc3)c2C1 [Example 136, 1-[2-(2-fluorophenyl)-3-(pyridin-4-yl)-6,7-dihydropyrazolo[1,5-a]pyrazin-5(4H)-yl]prop-2-en-1-one]	4.74 nM	1.1 nM	68.3 nM
C=CC(=O)N1CCn2nc(-c3ccccc3Cl)c(-c3ccncc3)c2C1 [Example 137, 1-[2-(2-chlorophenyl)-3-(pyridin-4-yl)-6,7-dihydropyrazolo[1,5-a]pyrazin-5(4H)-yl]prop-2-en-1-one]	10.8 nM	1.6 nM	144 nM
C=CC(=O)N1CCn2nc(-c3ccc(C)cc3)c(-c3ccncc3)c2C1 [Example 138, 1-[2-(4-methylphenyl)-3-(pyridin-4-yl)-6,7-dihydropyrazolo[1,5-a]pyrazin-5(4H)-yl]prop-2-en-1-one]	2.93 nM	0.981 nM	23.2 nM
C=CC(=O)N1CCn2nc(-c3cccc(C)c3)c(-c3ccncc3)c2C1 [Example 139, 1-[2-(3-methylphenyl)-3-(pyridin-4-yl)-6,7-dihydropyrazolo[1,5-a]pyrazin-5(4H)-yl]prop-2-en-1-one]	1.38 nM	0.841 nM	25.9 nM
C=CC(=O)N1CCn2nc(-c3ccc(CC)cc3)c(-c3ccncc3)c2C1 [Example 140, 1-[2-(4-ethylphenyl)-3-(pyridin-4-yl)-6,7-dihydropyrazolo[1,5-a]pyrazin-5(4H)-yl]prop-2-en-1-one]	3.08 nM	0.812 nM	51.4 nM
C=CC(=O)N1CCn2nc(-c3cccc(C#N)c3)c(-c3ccncc3)c2C1 [Example 141, 3-[5-(prop-2-enoyl)-3-(pyridin-4-yl)-4,5,6,7-tetrahydropyrazolo[1,5-a]pyrazin-2-yl]benzonitrile]	19.7 nM	32.4 nM	177 nM
C=CC(=O)N1CCn2nc(-c3ccc(OC)cc3F)c(-c3ccncc3)c2C1 [Example 142, 1-[2-(2-fluoro-4-methoxyphenyl)-3-(pyridin-4-yl)-6,7-dihydropyrazolo[1,5-a]pyrazin-5(4H)-yl]prop-2-en-1-one]	2.83 nM	0.739 nM	53 nM
C=CC(=O)N1CCn2nc(-c3ccc(SC(F)(F)F)cc3)c(-c3ccncc3)c2C1 [Example 143, 1-[3-(pyridin-4-yl)-2-{4-[(trifluoromethyl)sulfanyl]phenyl}-6,7-dihydropyrazolo[1,5-a]pyrazin-5(4H)-yl]prop-2-en-1-one]	71.9 nM	11.5 nM	673 nM
CN(C)C/C=C/C(=O)N1CCn2nc(-c3ccc(OC(F)F)cc3)c(-c3ccncc3)c2C1 [Example 144, (2E)-1-{2-[4-(difluoromethoxy)phenyl]-3-(pyridin-4-yl)-6,7-dihydropyrazolo[1,5-a]pyrazin-5(4H)-yl}-4-(dimethylamino)but-2-en-1-one]	31 nM	8.69 nM	1490 nM
CN(C)C/C=C/C(=O)N1CCn2nc(-c3ccc(OC(F)(F)F)cc3)c(-c3ccncc3)c2C1 [Example 145, (2E)-4-(dimethylamino)-1-[3-(pyridin-4-yl)-2-[4-(trifluoromethoxy)phenyl]-6,7-dihydropyrazolo[1,5-a]pyrazin-5(4H)-yl]but-2-en-1-one]	60.4 nM	9.01 nM	607 nM
C#Cc1ccc(-c2nn3c(c2-c2ccncc2)CN(C(=O)/C=C/CN(C)C)CC3)cc1 [Example 146, (2E)-4-(dimethylamino)-1-[2-(4-ethynylphenyl)-3-(pyridin-4-yl)-6,7-dihydropyrazolo[1,5-a]pyrazin-5(4H)-yl]but-2-en-1-one]	1170 nM	680 nM	4680 nM
CCOc1ccc(-c2nn3c(c2-c2ccncc2)CN(C(=O)/C=C/CN(C)C)CC3)cc1 [Example 147, (2E)-4-(dimethylamino)-1-[2-(4-ethoxyphenyl)-3-(pyridin-4-yl)-6,7-dihydropyrazolo[1,5-a]pyrazin-5(4H)-yl]but-2-en-1-one]	201 nM	36 nM	2940 nM
CN(C)C/C=C/C(=O)N1CCn2nc(-c3ccc(C(F)F)cc3)c(-c3ccncc3)c2C1 [Example 148, (2E)-1-{2-[4-(difluoromethyl)phenyl]-3-(pyridin-4-yl)-6,7-dihydropyrazolo[1,5-a]pyrazin-5(4H)-yl}-4-(dimethylamino)but-2-en-1-one]	9.1 nM	1.91 nM	387 nM
CN(C)C/C=C/C(=O)N1CCn2nc(-c3cc(Cl)ccc3F)c(-c3ccncc3)c2C1 [Example 149, (2E)-1-[2-(5-chloro-2-fluorophenyl)-3-(pyridin-4-yl)-6,7-dihydropyrazolo[1,5-a]pyrazin-5(4H)-yl]-4-(dimethylamino)but-2-en-1-one]	2.59 nM	1.54 nM	200 nM
CN(C)C/C=C/C(=O)N1CCn2nc(-c3cccc(Cl)c3)c(-c3ccncc3)c2C1 [Example 150, (2E)-1-[2-(3-chlorophenyl)-3-(pyridin-4-yl)-6,7-dihydropyrazolo[1,5-a]pyrazin-5(4H)-yl]-4-(dimethylamino)but-2-en-1-one]	1.05 nM	0.764 nM	54.3 nM
CN(C)C/C=C/C(=O)N1CCn2nc(-c3ccc(C(F)(F)F)c(F)c3)c(-c3ccncc3)c2C1 [Example 151, (2E)-4-(dimethylamino)-1-{2-[3-fluoro-4-(trifluoromethyl)phenyl]-3-(pyridin-4-yl)-6,7-dihydropyrazolo[1,5-a]pyrazin-5(4H)-yl}but-2-en-1-one]	12.1 nM	3.2 nM	405 nM
CN(C)C/C=C/C(=O)N1CCn2nc(-c3ccc(C(F)(F)F)cc3F)c(-c3ccncc3)c2C1 [Example 152, (2E)-4-(dimethylamino)-1-{2-[2-fluoro-4-(trifluoromethyl)phenyl]-3-(pyridin-4-yl)-6,7-dihydropyrazolo[1,5-a]pyrazin-5(4H)-yl}but-2-en-1-one]	4.55 nM	1.05 nM	257 nM
CN(C)C/C=C/C(=O)N1CCn2nc(-c3ccccc3F)c(-c3ccncc3)c2C1 [Example 153, (2E)-4-(dimethylamino)-1-[2-(2-fluorophenyl)-3-(pyridin-4-yl)-6,7-dihydropyrazolo[1,5-a]pyrazin-5(4H)-yl]but-2-en-1-one]	9.91 nM	2.29 nM	557 nM
CN(C)C/C=C/C(=O)N1CCn2nc(-c3ccccc3Cl)c(-c3ccncc3)c2C1 [Example 154, (2E)-1-[2-(2-chlorophenyl)-3-(pyridin-4-yl)-6,7-dihydropyrazolo[1,5-a]pyrazin-5(4H)-yl]-4-(dimethylamino)but-2-en-1-one]	27.5 nM	3.48 nM	2850 nM
COc1cccc(-c2nn3c(c2-c2ccncc2)CN(C(=O)/C=C/CN(C)C)CC3)c1 [Example 155, (2E)-4-(dimethylamino)-1-[2-(3-methoxyphenyl)-3-(pyridin-4-yl)-6,7-dihydropyrazolo[1,5-a]pyrazin-5(4H)-yl]but-2-en-1-one]	5.24 nM	6.43 nM	1050 nM
Cc1ccc(-c2nn3c(c2-c2ccncc2)CN(C(=O)/C=C/CN(C)C)CC3)cc1 [Example 156, (2E)-4-(dimethylamino)-1-[2-(4-methylphenyl)-3-(pyridin-4-yl)-6,7-dihydropyrazolo[1,5-a]pyrazin-5(4H)-yl]but-2-en-1-one]	4.64 nM	1.45 nM	98.2 nM
